Columns and labels:
[1] = target: T1, catalytic domain of MMP-13 (Homo sapiens, UniProt P45452); test: MMP-13 enzyme inhibition assay (fluorogenic substrate); type: biochemical; settings: mean ± SEM of at least three independent measurements in triplicate
T1 construct: The catalytic domains of MMP-2, MMP-8 and MMP-13 were purchased from Enzo Life Sciences; purchased Enzo Life Sciences (Lörrach, Germany)
Description: (§1) The synthesized compounds were submitted to MMP inhibition assays. A dose/response preliminary screening was performed at 100 µM by registering the residual enzyme activity on MMP-2, MMP-8 and MMP-13 (Figure 4). Compounds showing a percentage of inhibition higher than 50% were submitted to IC50 calculation.
(§2) The catalytic domains of MMP-2, MMP-8 and MMP-13 were purchased from Enzo Life Sciences (Lörrach, Germany). The assays were performed in triplicate in 96-well white microtiter plates (Corning, NBS; Corning, NY, USA). For assay measurements, inhibitor stock solutions (DMSO, 10 mM) were diluted to six different concentrations (1 nM–100 µM) in fluorometric assay buffer (50 mM Tris·HCl pH 7.5, 200 mM NaCl, 1 mM CaCl2, 1 µM ZnCl2, 0.05% Brij-35 and 1% DMSO). Enzyme and inhibitor solutions were incubated in the assay buffer for 15 min at room temperature before the addition of the fluorogenic substrate solution (OmniMMP® = Mca-Pro-Leu-Gly-Leu-Dpa-Ala-Arg-NH2, Enzo Life Sciences, 2.5 µM final concentration or OmniMMP®RED = TQ3-GABA-Pro-Cha-Abu-Smc-His-Ala-Dab(6’-TAMRA)-Ala-Lys-NH2, (TAMRA: tetramethylrhodamine) Enzo Life Sciences, 1 µM final concentration). After further incubation for 2–4 h at 37 °C, fluorescence was measured (λex = 340 nm, λem = 405 nm or λex = 545 nm, λem = 572 nm) using a Perkin-Elmer Victor V3 plate reader (Waltham, MA, USA). Control wells lacked inhibitor. The MMP inhibition activity was expressed in relative fluorescence units (RFU). Percent inhibition was calculated from control reactions without inhibitor; IC50 values were determined using GraphPad Prism version 5.0f and are expressed as the mean ± SEM of at least three independent measurements in triplicate.

[2] = target: T2, catalytic domain of MMP-8 (Homo sapiens, UniProt P22894); test: MMP-8 enzyme inhibition assay (fluorogenic substrate); type: biochemical; settings: mean ± SEM of at least three independent measurements in triplicate
T2 construct: The catalytic domains of MMP-2, MMP-8 and MMP-13 were purchased from Enzo Life Sciences; purchased Enzo Life Sciences (Lörrach, Germany)
T2 sequence (P22894 100-262 limits assumed): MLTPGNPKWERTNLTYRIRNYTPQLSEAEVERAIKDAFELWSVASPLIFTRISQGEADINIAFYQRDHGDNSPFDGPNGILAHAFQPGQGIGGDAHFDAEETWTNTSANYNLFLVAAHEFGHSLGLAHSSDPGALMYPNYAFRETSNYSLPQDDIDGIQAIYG
Description: as §1, §2

[3] = target: T3, catalytic domain of MMP-2 (Homo sapiens, UniProt P08253); test: MMP-2 enzyme inhibition assay (fluorogenic substrate); type: biochemical; settings: for IC50: mean ± SEM of at least three independent measurements in triplicate
T3 construct: The catalytic domains of MMP-2, MMP-8 and MMP-13 were purchased from Enzo Life Sciences; purchased Enzo Life Sciences (Lörrach, Germany)
T3 sequence (P08253 110-446 limits assumed): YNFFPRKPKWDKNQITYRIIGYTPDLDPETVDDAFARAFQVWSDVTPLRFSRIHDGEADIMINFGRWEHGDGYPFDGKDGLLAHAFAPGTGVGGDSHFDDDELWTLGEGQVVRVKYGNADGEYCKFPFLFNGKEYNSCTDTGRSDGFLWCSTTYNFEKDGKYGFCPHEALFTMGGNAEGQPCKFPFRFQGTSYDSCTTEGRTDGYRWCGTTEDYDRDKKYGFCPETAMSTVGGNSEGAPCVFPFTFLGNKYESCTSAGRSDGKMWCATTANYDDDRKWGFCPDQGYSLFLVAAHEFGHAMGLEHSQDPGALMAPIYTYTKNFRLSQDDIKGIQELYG
Description: as §1, §2

MMP-8 = tested on: MMP-8; design: method as in PMID 23873724; settings: previous work, virtual screening hits; cited from earlier work
MMP-13 = tested on: MMP-13; design: method as in PMID 23873724; settings: previous work, virtual screening hits; cited from earlier work
MMP-2 = tested on: MMP-2; design: method as in PMID 23873724; settings: previous work, virtual screening hits; cited from earlier work

Compound	melting point	other results
O=C(NCc1ccccc1)Nc1ccc2[nH]ccc2c1 [Compound 1j]	197 to 198 °C	–
O=C(NCc1ccccc1)Nc1ccc2cc[nH]c2c1 [Compound 1k]	211 to 213 °C	–
O=C(NCc1ccccc1)Nc1ccc2[nH]ncc2c1 [Compound 1l]	–	IC50 [1]: 98 ± 2 µM; IC50 [2]: > 100 µM; IC50 [3]: 86 ± 2 µM
O=C(NCc1ccccc1)Nc1ccc2cn[nH]c2c1 [Compound 1m]	198 to 199 °C	–
O=C(NCc1ccccc1)Nc1ccccn1 [Compound 1p]	148 to 150 °C	–
O=C(NCc1ccccc1)Nc1ccc(O)cc1 [Compound 1s]	177 to 179 °C	–
COc1cccc(CNC(=O)NCc2ccccc2)c1OC [Compound 1t]	149 °C	–
COc1ccc(CNC(=O)NCc2ccccc2)cc1OC [Compound 1u]	127 °C	–
CC(NC(=O)NCc1ccccc1)c1ccccc1 (stereo not drawn) [Compound 1w]	116 to 118 °C	–
O=C(NCc1ccccc1)NN1CCCC1 [Compound 1z]	124 to 126 °C	–
O=S(=O)(Nc1ccc2cnccc2c1)c1ccccc1 [Compound 2e]	228 to 230 °C	–
O=C(NCc1ccco1)Nc1c[nH]c2cccnc2c1=O [Hit 1]	–	IC50 (MMP-8): 75 µM; IC50 (MMP-13): 36 µM; IC50 (MMP-2): 5 µM
O=C(NCc1ccco1)Nc1c[nH]c2ccc(F)cc2c1=O [Hit 2]	–	IC50 (MMP-8): 105 µM; IC50 (MMP-13): 5 µM; IC50 (MMP-2): 15 µM

Continued, in another order:

melting point	Compound	other results
167 to 169 °C	O=C(NCc1ccccc1)Nc1ccnc2ccccc12 [Compound 1b]	–
251 °C (dec.)	O=C(NCc1ccccc1)Nc1cccc2ncccc12 [Compound 1c]	IC50 [1]: 58 ± 1 µM; IC50 [2]: > 100 µM; IC50 [3]: 55 ± 1 µM
164 to 165 °C	O=C(NCc1ccccc1)Nc1nccc2ccccc12 [Compound 1e]	–
168 to 170 °C	O=C(NCc1ccccc1)Nc1cc2ccccc2cn1 [Compound 1f]	–
235 to 237 °C	O=C(NCc1ccccc1)Nc1cncc2ccccc12 [Compound 1g]	IC50 [1]: 73 ± 11 µM; IC50 [2]: > 100 µM; IC50 [3]: 74 ± 3 µM
248 to 249 °C	O=C(NCc1ccccc1)Nc1cccc2cnccc12 [Compound 1h]	IC50 [1]: 14 ± 4 µM; IC50 [2]: > 100 µM; IC50 [3]: 15 ± 4 µM
206 to 208 °C	O=C(NCc1ccccc1)Nc1cccc2ccncc12 [Compound 1i]	MMP inhibition activity (in words) ([3]; preliminary screening at 100 µM, isoform not given, MMP-2): inactive
196 to 197 °C	O=C(NCc1ccccc1)Nc1cccc2ccccc12 [Compound 1n]	–
208 to 210 °C	O=C(NCc1ccccc1)Nc1ccc2ccccc2c1 [Compound 1o]	–
154 to 156 °C	O=C(NCc1ccccc1)Nc1cccnc1 [Compound 1q]	–
186 to 188 °C	O=C(Cc1ccccc1)Nc1cccc2cnccc12 [Compound 2a]	–
133 to 135 °C	O=C(CCc1ccccc1)Nc1cccc2cnccc12 [Compound 2b]	–
182 to 183 °C	O=C(NCc1ccccc1)c1cccc2cnccc12 [Compound 2c]	–
120 to 121 °C	O=C(NCCc1ccccc1)c1cccc2cnccc12 [Compound 2d]	–
117 to 119 °C	O=C(NCc1ccc(NS(=O)(=O)c2ccccc2)cc1)Nc1cccc2cnccc12 [Compound 5]	IC50 [1]: 55 ± 7 µM; IC50 [2]: 88 ± 5 µM; IC50 [3]: 54 ± 7 µM
200 to 202 °C	O=C(NCc1ccc(NC(=O)c2ccccc2)cc1)Nc1cccc2cnccc12 [Compound 7]	IC50 [1]: 6.6 ± 0.4 µM; IC50 [2]: 48.5 ± 1.6 µM; IC50 [3]: 7.4 ± 0.8 µM

Reference: article PMC5085792, “Seeking for Non-Zinc-Binding MMP-2 Inhibitors: Synthesis, Biological Evaluation and Molecular Modelling Studies” (International Journal of Molecular Sciences, 2016)
